Data reported in US4677968A, “Methods of testing the reaction of various substances on living human skin” (priority 1986, dated 1987).

Experiments:
[1] = system: rat/rat skin sandwich flap (enzyme in the skin, deaminase); assay: Metabolism of vidarabine in the rat/rat skin sandwich flap; type: in vivo; details: radiolabeled vidarabine on rat/rat flap, half-cell diffusion chamber
Source text: (§1) In this example, the procedure followed in Example 1 was followed to produce a rat/rat skin flap with accessible vasculature.
Test compounds were applied to either the host or the graft side of the flap. Test compounds in their vehicles were placed in either a 1.5 cm diameter well, prepared from a HolliSeal® skin barrier (a sheet of silicone material with adhesive on both sides) (Hollister Incorporated, Libertyville, IL), or in a half-cell diffusion chamber. The HolliSeal well is generally covered with Parafilm to prevent evaporation. […]
(§2) At the time of an experiment, with the animal under Ketamine anesthesia, the vessels supplying and draining the flap were exposed through an incision over the inguinal ligament. […] Concentration of radiolabeled compound, or its metabolities, in the blood were subsequently assessed by liquid scintillation counting and chromatographic techniques. Concentrations in the donor chamber were sampled periodically and quantitated in a similar manner.
Additional experiments, using an antiviral substance, vidarabine, have been performed to assess the metabolic activity in the skin. […] Accordingly, radiolabeled vidarabine was placed on a rat/rat skin sandwich flap system, and the amount of vidarabine and its metabolite, ara-H, was measured in the blood draining the flap.

[2] = system: rat/rat flap (host skin / grafted skin); assay: Absorption of benzoic acid across host vs. graft side of the rat/rat skin flap (flap blood sampling); type: in vivo
Source text: Breeding pairs of nude rats were obtained from the Animal Production Facility of the National Cancer Institutes (Frederick, MD) and the colony was expanded by mating male rats homozygous for nude (athymic) with females heterozygous for nude.
(§3) A skin flap was generated by incising the abdominal skin of the rat along three sides. The donor STSG was trimmed to approximate the size of the epigastric flap and was placed in the wound, with the epidermis facing the abdominal musculature of the host. The overlying epigastric host skin was returned to its normal anatomic position. The epigastric skin and the STSG were sutured in place, creating a sandwich having a vascular pedicle sandwiched between the skin layers. This surgical procedure produced a flap which received essentially all of its blood from the superficial epigastric vessels.
(§4) Two weeks later, the femoral vessels distal to the origin of the superficial epigastric vessels were surgically isolated and divided. This manipulation maximized the blood flow from the femoral artery to the sandwich flap. The flap was raised and isolated on its neurovascular pedicle (a single artery, vein, and nerve) using the operating microscope.
(§5) The donor site on the rat's abdomen was covered with a STSG from another syngeneic animal and sutured in place. The flap, on its isolated vascular pedicle, was moved through a subcutaneous tunnel to the rat's dorsum, where it was sutured in place.
as §1
Test compounds were applied to either the host or the graft side of the flap. Test compounds in their vehicles were placed in either a 1.5 cm diameter well, prepared from a HolliSeal® skin barrier (a sheet of silicone material with adhesive on both sides) (Hollister Incorporated, Libertyville, IL), or in a half-cell diffusion chamber. The HolliSeal well is generally covered with Parafilm to prevent evaporation. The half-cell diffusion chamber has a 2.7 ml volume, an impeller to avoid problems of unstirred solutions, a water jacket to maintain a constant temperature, and a sampling port (Dependable Scientific Glass, Salt Lake City, UT).
In an initial series of experiments ^14 C benzoic acid, specific activity 58.6 mCi/mM (New England Nuclear, Boston MA) in phosphate buffered saline, was used in various concentrations in the HolliSeal well and the half-cell diffusion chamber. These experiments were designed to compare the absorption of benzoic acid across the host and graft sides of the flap as a means of validating the system. In another series of experiments 3H-vidarabine, specific activity 38 mCi/mg (2.7 ml), was added to a half-cell diffusion chamber to validate the flap as a system to study the metabolism of a drug as it crosses the skin. 3H-vidarabine, specific activity 38 mCi/mg (2.7 ml), was added to a half-cell diffusion chamber attached to rat/rat skin sandwich flaps, which had previously been tape-stripped.
At the time of an experiment, with the animal under Ketamine anesthesia, the vessels supplying and draining the flap were exposed through an incision over the inguinal ligament. A venotomy was made in the femoral vein proximal to the juncture of the superficial epigastric vein to sample flap blood. A venotomy was also made in the contralateral femoral view to sample systemic blood. The blood samples (approximately 40 ul) were collected periodically in heparinized microhematocrit capillary tubes. Concentration of radiolabeled compound, or its metabolities, in the blood were subsequently assessed by liquid scintillation counting and chromatographic techniques. Concentrations in the donor chamber were sampled periodically and quantitated in a similar manner. […]

[3] = system: rat/human flap (host side); assay: Transdermal flux of benzoic acid in the rat/human flap, host side; type: in vivo
Source text: as §3, §4, §5
Test compounds were applied to either the host or the graft side of the flap. […]
as §2, with “manner. […]” for “manner.”
In this experiment, 20 ug of ^14 C benzoic acid (4.5 uCi) in 95% ethanol was applied to the host side of the flap. […] Thereafter steady state was attained and flux was calculated to be 0.045 uCi/min/cm^2. […]

[4] = Role of blood flow on percutaneous absorption (iontophoresis of phenylephrine), rat/rat flap; type: in vivo; details: rat, in vivo, topical or ocular
Procedure: (§6) In this example the experimental procedure described in Example 1 was followed and a rat/rat flap was prepared using an identical procedure. The purpose of this example is to illustrate the role of blood flow on percutaneous absorption processes. In this example, blood flow was locally altered by iontophoresis of phenylephrine. […] The experiment was repeated two weeks later in a nontreated mode, i.e., no alteration in the microcirculation. […] In the situtaton where there is no alteration in the mircocirculation, peak levels occur in approximately 10 minutes. There results reveal that in situations, where compounds are rapidly absorbed, microcirculation to the skin is of critical importance.

[5] = system: human skin; assay: In vitro topical application of caffeine to human skin; type: in vitro ADME
Procedure: (§7) Compounds will frequently bind to the skin. Thus, after being absorbed through the outer protective layer, the stratum corneum, there is a possibility that the compound being tested will not be absorbed into the blood stream. It is anticipated that caffeine could be such a product. […] It is surprising to observe peak levels of caffeine within 30 minutes of topical application in the in vivo situation using the system described in Example 1. […] This confirmed the notion that there are binding sites of caffeine within the dermis.

[6] = In vivo topical application of caffeine in the flap system of Example 1; details: rat, topical or ocular; in vivo, topical application; read-out: time of peak levels of caffeine
Procedure: as §7

[7] = system: skin flap (system described in Example 1); assay: as above
Procedure: as §7

[8] = system: host rat graft or human graft (rat skin vs. human skin); details: in vivo
Source text: The objective of this experiment was to determine differences in absorption, rat skin vs. human skin, rat graft vs. rat host skin, with a second agent, caffeine.

[9] = system: flap; details: rat, in vivo
Source text: Following an intravenous injection of fluorescein, the amount of fluorescein that moves into tissue, and the rapidity with which it clears, depends upon the volume of blood to the area, the adequacy of venous drainage, and renal clearance. The influx and clearance of fluorescein, as measured with a surface hand-held dermofluorometer, has been evaluated as a function of time after occluding either the supplying artery or the draining vein.
Instrumentation used included: (1) Dermatome (Brown Electro-Dematome, Model 666, Zimmer Inc., Warsaw, IN) to generate the split-thickness skin grafts; (2) an operating microscope (Model OPMI 6-SD Carl Zeiss, West Germany) equipped with a fiberoptic illuminator (Model 310187, Dyonics, Andover, MA), to isolate the microvasculature supplying the skin flap; (3) Laser Doppler flow velocimeter (LD 5000, Med Pacific, Seattle, WA)--to noninvasively assess microcirculation of the skin; (4) electromagnetic blood flow transducer, C type 0.5 mm, 0.8 mm, and 1 mm in diameter (C&C INstruments, Culver City, CA)--to directly assess blood flow through the vessels supplying and draining the flap; and (5) a hand-held fiberoptic dermofluorometer (Fluoroscan-Santa Barbara Technology, Santa Barbara, CA), to assess blood flow by monitoring the appearance and clearance of fluorescein in the flap.

[10] = system: rat/rat flap; assay: Role of blood flow on percutaneous absorption (iontophoresis of phenylephrine), rat/rat flap; type: in vivo; details: iontophoresis, circumscribed area
Procedure: as §6

[11] = system: rat/rat skin sandwich flap (enzyme in the skin, deaminase); details: stated as known; cited from earlier work
[12] = grafted side, three weeks later

Structure (SMILES): O=c1[nH]cnc2c1ncn2[C@@H]1O[C@H](CO)[C@@H](O)[C@@H]1O [ara-H]
- back-diffusion through the skin into the donor chamber [1]: diffused back through the skin into the donor chamber

Structure (SMILES): O=C(O)c1ccccc1 [benzoic acid]
- decrease in concentration in the donor well (time course) ([2]; donor well): linear with time
- benzoic acid concentration in the donor well, start of decrease ([2]; donor well, decreasing from): 2.2 µg/mL
- benzoic acid concentration in the donor well, end of decrease ([2]; donor well, decreasing to): 0.75 µg/mL
- course of flux after the peak [2, 12]: even more rapid decline
- peak flux across the grafted side [2, 12]: 2.2 uCi/min/cm^2
- course of flux after the peak ([2]; host skin): decreased rapidly
- time of peak flux ([2]; host skin, HolliSeal well, 0.52 uCi/ul in unbuffered water, 100 ul): 30 min
- flux across host skin ([2]; host skin, assuming a blood flow of 1.5 ml/min): 0.84 uCi/min/cm^2
- total amount absorbed ([2]; same for host and grafted side): 1.04 µg·min/µL
- steady state flux ([3]; 20 ug (4.5 uCi) in 95% ethanol): 0.045 uCi/min/cm^2
- time of peak flux ([3]; 20 ug (4.5 uCi) in 95% ethanol): one
- time of peak flux ([3]; half-cell diffusion chamber, maximal hydration of the skin): ≤ 10 min
- Tmax ([4]; decreased microcirculation (iontophoresis of phenylephrine), read-out: time of peak benzoic acid levels in flap blood (converted)): ~140 min
- Tmax ([4]; no alteration in the microcirculation, two weeks later, read-out: time of peak levels in flap blood (converted)): ~10 min

Structure (SMILES): Cn1c(=O)c2c(ncn2C)n(C)c1=O [caffeine]
- time until appearance in the donor chamber ([5]; topical, human skin): 6 to 12 h
- effect of a second dose on absorption ([5]; two doses): did not alter absorption
- Tmax [6]: ≤ 30 min
- effect of a second dose on absorption ([7]; in vivo, two doses): greater than predicted absorption
- binding in the skin ([7]; lower layer of skin / dermis, in vitro vs. in vivo comparison): there are binding sites within the lower layer of skin which bind caffeine
- increase in absorption, rat skin relative to human skin [8]: ~8 fold

Structure (SMILES): O=C1OC2(c3ccc(O)cc3Oc3cc(O)ccc32)c2ccccc21 [fluorescein]
- appearance of fluorescein in the flap [9]: failure of the appearance of fluorescein in the flap

Structure (SMILES): CNC[C@H](O)c1cccc(O)c1 [phenylephrine]
- effect on local microcirculation [10]: decreased microcirculation

Structure (SMILES): Nc1ncnc2c1ncn2[C@@H]1O[C@H](CO)[C@@H](O)[C@@H]1O [vidarabine]
- metabolism by an enzyme in the skin, deaminase [11]: metabolized by an enzyme in the skin, deaminase
